Converted amounts (≈) assume the structure as drawn. Values belong to the molecule of their own block, whether it stands above or below them. The source made the active and inactive calls. The rule behind the calls is not given here.
What was measured:
Beta-lactamase = Beta-lactamase (Enterobacter cloacae, UniProt P05364); experiment: Inhibitory activity against class C Beta-lactamase isolated from Enterobacter cloacae
[1] = molecular target: Beta-lactamase TEM (Escherichia coli) (UniProt P62593); experiment: Inhibitory activity against class A Beta-lactamase TEM isolated from Escherichia coli
Beta-lactamase TEM (Escherichia coli), sequence (P62593 whole entry, looked up): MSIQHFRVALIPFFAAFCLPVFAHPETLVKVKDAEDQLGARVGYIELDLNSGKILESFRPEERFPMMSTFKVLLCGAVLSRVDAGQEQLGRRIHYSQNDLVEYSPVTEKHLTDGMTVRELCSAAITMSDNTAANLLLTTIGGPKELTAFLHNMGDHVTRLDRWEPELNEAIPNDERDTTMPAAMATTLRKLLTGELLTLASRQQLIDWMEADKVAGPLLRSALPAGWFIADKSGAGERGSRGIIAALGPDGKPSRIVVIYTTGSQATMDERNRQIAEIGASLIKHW

Enterobacter cloacae [2] = experiment: The compound was evaluated for antimicrobial activity against Enterobacter cloacae OC 4080 by inhibiting enzyme P99; assay type: functional
Enterobacter cloacae [3] = experiment: The compound was evaluated for antimicrobial activity against Enterobacter cloacae OC 4081 by inhibiting enzyme E2 (const); assay type: functional
Enterobacter cloacae [4] = experiment: The compound was evaluated for antimicrobial activity against Enterobacter cloacae OC 4092 by inhibiting enzyme E2 (ind); assay type: functional
Enterobacter cloacae [5] = experiment: The ratio of compound to that of piperacillin was evaluated for antimicrobial activity against Enterobacter cloacae OC 4080 by inhibiting enzyme P99 at 1 ug/mL; assay type: functional
Enterobacter cloacae [6] = experiment: The ratio of compound to that of piperacillin was evaluated for antimicrobial activity against Enterobacter cloacae OC 4080 by inhibiting enzyme P99 at 4 ug/mL; not applicable; assay type: functional, organism-based
Escherichia coli [7] = experiment: The ratio of compound to that of piperacillin was evaluated for antimicrobial activity against Escherichia coli OC 4075 by inhibiting enzyme TEM-1 at 1 ug/mL; assay type: functional
Escherichia coli [8] = experiment: The ratio of compound to that of piperacillin was evaluated for antimicrobial activity against Escherichia coli OC 4075 by inhibiting enzyme TEM-1 at 4 ug/mL; not applicable; assay type: functional, organism-based
Escherichia coli [9] = experiment: The compound was evaluated for antimicrobial activity against Escherichia coli OC 4075 by inhibiting enzyme TEM-1; assay type: functional
Pseudomonas aeruginosa [10] = experiment: The compound was evaluated for antimicrobial activity against Pseudomonas aeruginosa OC 4270 by inhibiting enzyme AmpC(ind); assay type: functional
Pseudomonas aeruginosa [11] = experiment: The compound was evaluated for antimicrobial activity against Pseudomonas aeruginosa OC 4290 by inhibiting enzyme AmpC(const); assay type: functional
Pseudomonas aeruginosa [12] = experiment: The ratio of compound to that of piperacillin was evaluated for antimicrobial activity against Pseudomonas aeruginosa OC 4270 by inhibiting enzyme AmpC(ind) at 1 ug/mL; assay type: functional
Pseudomonas aeruginosa [13] = experiment: The ratio of compound to that of piperacillin was evaluated for antimicrobial activity against Pseudomonas aeruginosa OC 4270 by inhibiting enzyme AmpC(ind) at 4 ug/mL; assay type: functional
Pseudomonas aeruginosa [14] = experiment: The ratio of compound to that of piperacillin was evaluated for antimicrobial activity against Pseudomonas aeruginosa OC 4290 by inhibiting enzyme AmpC(const) at 1 ug/mL; assay type: functional
Pseudomonas aeruginosa [15] = experiment: The ratio of compound to that of piperacillin was evaluated for antimicrobial activity against Pseudomonas aeruginosa OC 4290 by inhibiting enzyme AmpC(const) at 4 ug/mL; assay type: functional
Serratia marcescens [16] = experiment: The compound was evaluated for antimicrobial activity against Serratia marcescens OC 4101 by inhibiting enzyme AmpC(ind); assay type: functional
Serratia marcescens [17] = experiment: The compound was evaluated for antimicrobial activity against Serratia marcescens OC 4294 by inhibiting enzyme AmpC(const); assay type: functional
Serratia marcescens [18] = experiment: The ratio of compound to that of piperacillin was evaluated for antimicrobial activity against Serratia marcescens OC 4101 by inhibiting enzyme AmpC(ind) at 1 ug/mL; assay type: functional
Serratia marcescens [19] = experiment: The ratio of compound to that of piperacillin was evaluated for antimicrobial activity against Serratia marcescens OC 4101 by inhibiting enzyme AmpC(ind) at 4 ug/mL; assay type: functional
Serratia marcescens [20] = experiment: The ratio of compound to that of piperacillin was evaluated for antimicrobial activity against Serratia marcescens OC 4294 by inhibiting enzyme AmpC(const) at 1 ug/mL; assay type: functional
Serratia marcescens [21] = experiment: The ratio of compound to that of piperacillin was evaluated for antimicrobial activity against Serratia marcescens OC 4294 by inhibiting enzyme AmpC(const) at 4 ug/mL; assay type: functional
Enterobacter cloacae [22] = experiment: The ratio of compound to that of piperacillin was evaluated for antimicrobial activity against Enterobacter cloacae OC 4080 by inhibiting enzyme P99 at 4 ug/mL; assay type: functional
Escherichia coli [23] = experiment: The ratio of compound to that of piperacillin was evaluated for antimicrobial activity against Escherichia coli OC 4075 by inhibiting enzyme TEM-1 at 4 ug/mL; assay type: functional
[24] = Enterobacter cloacae, read-out: MIC
[25] = Escherichia coli, read-out: MIC
[26] = Pseudomonas aeruginosa, read-out: MIC

Beta-lactamase, sequence (P05364 whole entry): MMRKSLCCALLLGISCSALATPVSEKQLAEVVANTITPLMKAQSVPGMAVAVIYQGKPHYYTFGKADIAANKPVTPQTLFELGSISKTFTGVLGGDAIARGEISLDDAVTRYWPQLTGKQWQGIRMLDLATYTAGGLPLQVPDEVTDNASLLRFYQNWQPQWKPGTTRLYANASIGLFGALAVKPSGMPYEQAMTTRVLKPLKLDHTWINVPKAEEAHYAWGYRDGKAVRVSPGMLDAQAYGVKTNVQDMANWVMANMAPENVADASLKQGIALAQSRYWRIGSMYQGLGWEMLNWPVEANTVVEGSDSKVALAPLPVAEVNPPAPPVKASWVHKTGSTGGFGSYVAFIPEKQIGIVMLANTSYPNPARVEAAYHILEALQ

- IC50 (Beta-lactamase): 246 µM
- IC50 [1]: 138 µM
SMILES: O=C1/C(=C/c2ccccc2)SC(=S)N1CNc1nncs1

- IC50 (Beta-lactamase): 240 µM
- IC50 [1]: 432 µM
SMILES: CCN1C(=O)/C(=C/c2ccccc2)SC1=S

- IC50 (Beta-lactamase): > 700 µM
- IC50 [1]: 190 µM
SMILES: CC(=O)Nc1ccccc1/C=C1\SC(=S)NC1=O

SMILES: O=C1NC(=S)SC1=CC=Cc1ccc([N+](=O)[O-])o1
- IC50 (Beta-lactamase): 0.45 µM
- MIC (Enterobacter cloacae [2]): 2 µg/mL (≈ 7.08 µM)
- MIC (Enterobacter cloacae [2]; [24]): 2 µg/mL (≈ 7.08 µM)
- MIC (Enterobacter cloacae [3]): 32 µg/mL (≈ 113 µM)
- MIC (Enterobacter cloacae [4]): 32 µg/mL (≈ 113 µM)
- Ratio (Enterobacter cloacae [5]): 64
- Ratio (Enterobacter cloacae [6]): inactive
- Ratio (Escherichia coli [7]): 64
- Ratio (Escherichia coli [8]): inactive
- MIC (Escherichia coli [9]): 2 µg/mL (≈ 7.08 µM)
- MIC (Escherichia coli [9]; [25]): 2 µg/mL (≈ 7.08 µM)
- MIC (Pseudomonas aeruginosa [10]): 32 µg/mL (≈ 113 µM)
- MIC (Pseudomonas aeruginosa [10]; [26]): 32 µg/mL (≈ 113 µM)
- MIC (Pseudomonas aeruginosa [11]): 32 µg/mL (≈ 113 µM)
- MIC (Pseudomonas aeruginosa [11]; [26]): 32 µg/mL (≈ 113 µM)
- Ratio (Pseudomonas aeruginosa [12]): 4
- Ratio (Pseudomonas aeruginosa [13]): 4
- Ratio (Pseudomonas aeruginosa [14]): 16
- Ratio (Pseudomonas aeruginosa [15]): 8
- MIC (Serratia marcescens [16]): 8 µg/mL (≈ 28.3 µM)
- MIC (Serratia marcescens [17]): 8 µg/mL (≈ 28.3 µM)
- Ratio (Serratia marcescens [18]): 2
- Ratio (Serratia marcescens [19]): 2
- Ratio (Serratia marcescens [20]): 32
- Ratio (Serratia marcescens [21]): 8
- IC50 [1]: 100 µM

SMILES: O=C1/C(=C/c2ccccc2)SC(=S)N1CNc1nn[nH]n1
- IC50 (Beta-lactamase): 435 µM
- IC50 [1]: > 700 µM

SMILES: O=C1NC(=S)SC1=CC=Cc1ccco1
- IC50 (Beta-lactamase): 62 µM
- IC50 [1]: 100 µM

SMILES: N#Cc1ccc(/C=C2\SC(=S)NC2=O)cc1
- IC50 (Beta-lactamase): 500 µM
- IC50 [1]: > 700 µM

SMILES: O=C1NC(=S)S/C1=C\c1ccccc1C(=O)O
- IC50 (Beta-lactamase): > 700 µM
- IC50 [1]: > 700 µM

SMILES: O=C1NC(=S)S/C1=C\c1ccccc1O
- IC50 (Beta-lactamase): 335 µM
- IC50 [1]: > 700 µM

SMILES: O=C1NC(=S)S/C1=C\c1cn(-c2ccccc2)cn1
- IC50 (Beta-lactamase): > 700 µM
- IC50 [1]: > 700 µM

- MIC (Enterobacter cloacae [2]; [24]): > 64 µg/mL
- MIC (Escherichia coli [9]): > 64 µg/mL
- MIC (Pseudomonas aeruginosa [10]; [26]): 8 µg/mL (≈ 15.5 µM)
- MIC (Pseudomonas aeruginosa [11]; [26]): > 64 µg/mL
- MIC (Serratia marcescens [16]): 8 µg/mL (≈ 15.5 µM)
- MIC (Serratia marcescens [17]): > 64 µg/mL
SMILES: CCN1CCN(C(=O)N[C@@H](C(=O)N[C@@H]2C(=O)N3[C@@H]2SC(C)(C)[C@@H]3C(=O)O)c2ccccc2)C(=O)C1=O [PIPERACILLIN]

- IC50 (Beta-lactamase): > 50 µM
- MIC (Enterobacter cloacae [2]; [24]): 0.5 µg/mL (≈ 1.88 µM)
- MIC (Enterobacter cloacae [3]): 4 µg/mL (≈ 15 µM)
- MIC (Enterobacter cloacae [4]): 4 µg/mL (≈ 15 µM)
- MIC (Escherichia coli [9]; [25]): 1 µg/mL (≈ 3.76 µM)
- MIC (Pseudomonas aeruginosa [10]; [26]): 32 µg/mL (≈ 120 µM)
- MIC (Pseudomonas aeruginosa [11]; [26]): 32 µg/mL (≈ 120 µM)
- IC50 [1]: > 50 µM
SMILES: O=C1NC(=O)C(=CC=Cc2ccc([N+](=O)[O-])o2)S1

- IC50 (Beta-lactamase): 8 µM
- IC50 [1]: > 100 µM
SMILES: CN(C)c1ccc(C=CC=C2SC(=S)NC2=O)cc1

SMILES: O=C1NC(=S)S/C1=C\c1cn(-c2ccccc2)nn1
- IC50 (Beta-lactamase): 83 µM
- IC50 [1]: > 700 µM

SMILES: O=C1NC(=S)SC1=CC=Cc1ccccc1
- IC50 (Beta-lactamase): 76 µM
- IC50 [1]: > 700 µM

- IC50 (Beta-lactamase): 2.6 µM
- IC50 [1]: 8.7 µM
SMILES: O=C1NC(=S)S/C1=C1/C(=O)Nc2ccccc21

SMILES: O=C1NC(=S)SC1=CC=Cc1ccc([N+](=O)[O-])cc1
- IC50 (Beta-lactamase): 4.2 µM
- IC50 [1]: 100 µM

- IC50 (Beta-lactamase): > 700 µM
- IC50 [1]: > 700 µM
SMILES: O=C(O)CN1C(=O)/C(=C/c2ccccc2)SC1=S

SMILES: O=C1NC(=S)S/C1=C\c1ccccc1[N+](=O)[O-]
- IC50 (Beta-lactamase): 290 µM
- IC50 [1]: > 700 µM

SMILES: C[C@]1(Cn2ccnn2)[C@H](C(=O)O)N2C(=O)C[C@H]2S1(=O)=O [TAZOBACTAM]
- MIC (Enterobacter cloacae [22]): 64 µg/mL
- MIC (Escherichia coli [23]): 8 µg/mL
- MIC (Pseudomonas aeruginosa [13]): 8 µg/mL
- MIC (Pseudomonas aeruginosa [15]): 32 µg/mL
- MIC (Serratia marcescens [19]): 4 µg/mL
- MIC (Serratia marcescens [21]): 32 µg/mL

SMILES: O=C1NC(=S)S/C1=C\c1ccc([N+](=O)[O-])cc1
- IC50 (Beta-lactamase): 43 µM
- IC50 [1]: > 700 µM

- IC50 (Beta-lactamase): 9.7 µM
- IC50 [1]: 32 µM
SMILES: O=C1NC(=S)S/C1=C\CCc1ccccc1

Source: ChEMBL document CHEMBL1132742, “The synthesis and SAR of rhodanines as novel class C beta-lactamase inhibitors” (Bioorg Med Chem Lett, 2000)
